Laboratory results: the NIST ThermoML archive (doi:10.1021/je900227j)

Conditions: 101.33 kPa, Liquid; for mass density: Pycnometric method; for speed of sound: Pulse-echo method

CCCBr [1-bromopropane]
Conditions | mass density [kg/m3] | speed of sound [m/s]
243.15 K | 1431.07 | –
243.76 K | – | 1144.8
253.15 K | 1415.43 | –
263.15 K | 1400.28 | –
263.38 K | – | 1075
273.15 K | 1385.33 | –
273.31 K | – | 1040.1
283.15 K | 1369.4 | –
283.26 K | – | 1005.5
293.15 K | 1352.89 | –
293.22 K | – | 971.22
298.15 K | 1344.48 | –
298.21 K | – | 954.05
323.21 K | – | 870.16
343.21 K | – | 804.19
363.23 K | – | 739.38
383.47 K | – | 674.94

CCCCCCCCCBr [1-bromononane]
Conditions | mass density [kg/m3] | speed of sound [m/s]
253.15 K | 1124.52 | –
253.46 K | – | 1329.9
263.2 K | 1115.2 | –
273.15 K | 1105.5 | –
273.29 K | – | 1262.7
283.15 K | 1096.09 | –
293.15 K | 1086.58 | –
298.15 K | 1082.2 | –
303.15 K | – | 1165.1
323.14 K | – | 1101.1
323.15 K | 1058.34 | –
343.15 K | 1038.92 | –
353.1 K | – | 1009.9
363.15 K | 1019.42 | –
383.05 K | – | 921.46
383.15 K | 999.36 | –
393.15 K | 989.17 | –
402.98 K | – | 864.42
413.15 K | 968.48 | –
422.72 K | – | 808.79

CCCCCCCCBr [1-bromooctane]
Conditions | mass density [kg/m3] | speed of sound [m/s]
243.61 K | – | 1336.3
253.15 K | 1151.11 | –
263.15 K | 1140.86 | –
273.15 K | 1131.22 | –
273.28 K | – | 1235.4
283.15 K | 1121.21 | –
293.15 K | 1111.01 | –
303.15 K | 1100.89 | –
303.16 K | – | 1137.2
323.02 K | – | 1073.8
323.15 K | 1080.6 | –
343.15 K | 1060.45 | –
352.91 K | – | 981.92
363.15 K | 1039.47 | –
382.88 K | – | 892.87
383.15 K | 1018.75 | –
393.15 K | 1008.38 | –
402.55 K | – | 835.51
423.04 K | – | 778.72

CCCCCCCCCCCCBr [1-bromododecane]
Conditions | mass density [kg/m3] | speed of sound [m/s]
273.15 K | 1056.54 | –
273.32 K | – | 1323.5
283.15 K | 1048.47 | –
293.15 K | 1039.81 | –
303.15 K | 1031.27 | –
303.21 K | – | 1224.8
323.15 K | 1013.99 | –
323.18 K | – | 1161.2
343.15 K | 996.24 | –
353.15 K | – | 1069.7
363.15 K | 979.02 | –
383.15 K | 961.54 | –
383.17 K | – | 982.95
393.15 K | 952.43 | –
403.19 K | – | 926.37
413.15 K | 933.49 | –
423.14 K | – | 871.74
423.15 K | 923.65 | –

CCCCBr [1-bromobutane]
Conditions | mass density [kg/m3] | speed of sound [m/s]
243.38 K | – | 1195.3
253.15 K | 1326.49 | –
263.15 K | 1313.8 | –
273.15 K | 1300.5 | –
273.26 K | – | 1091
283.15 K | 1286.37 | –
293.15 K | 1272.7 | –
298.15 K | 1265.66 | –
303.15 K | 1258.55 | –
323.15 K | 1229.53 | –
323.22 K | – | 925.99
343.22 K | – | 861.16
363.23 K | – | 797.6
383.31 K | – | 735.21

CCCCCCCCCCBr [1-bromodecane]
Conditions | mass density [kg/m3] | speed of sound [m/s]
253.4 K | 1105.66 | –
263.3 K | 1096.34 | –
273.25 K | 1087.32 | –
283.2 K | 1078.06 | –
293.15 K | 1069.01 | –
298.15 K | 1064.47 | –
323.15 K | 1041.72 | –
323.2 K | – | 1123.8
343.15 K | 1023.01 | –
353.19 K | – | 1032.2
363.15 K | 1004.33 | –
383.15 K | 985.41 | –
383.22 K | – | 944.49
403.23 K | – | 888.22
403.25 K | 966.27 | –
423.27 K | – | 833.21
423.3 K | 946.49 | –

CCCCCBr [1-bromopentane]
Conditions | mass density [kg/m3] | speed of sound [m/s]
243.73 K | – | 1240
253.15 K | 1260.65 | –
263.15 K | 1249.88 | –
273.32 K | – | 1137.5
283.15 K | 1226.85 | –
293.15 K | 1214.88 | –
303.15 K | 1202.6 | –
303.22 K | – | 1037.1
323.15 K | 1177.13 | –
323.17 K | – | 972.37
343.15 K | 1150.97 | –
353.18 K | – | 877.57
363.15 K | 1124.69 | –
383.15 K | 1097.39 | –
383.23 K | – | 785.49
393.15 K | 1083.35 | –
403.28 K | – | 725.54
423.48 K | – | 666.58

CCCCCCCCCCCBr [1-bromoundecane]
Conditions | mass density [kg/m3] | speed of sound [m/s]
273.15 K | 1067.26 | –
273.42 K | – | 1307
283.2 K | 1058.34 | –
293.2 K | 1049.49 | –
298.15 K | 1045.03 | –
303.22 K | – | 1209
323.19 K | – | 1145.6
323.2 K | 1023.21 | –
343.2 K | 1005.75 | –
353.14 K | – | 1054.4
363.2 K | 987.93 | –
383.14 K | – | 966.59
383.2 K | 969.56 | –
403.13 K | – | 909.71
403.25 K | 951.27 | –
423.13 K | – | 854.45

CCCCCCCBr [1-bromoheptane]
Conditions | mass density [kg/m3] | speed of sound [m/s]
243.74 K | – | 1308.3
253.15 K | 1180.21 | –
263.15 K | 1169.57 | –
273.15 K | 1159.15 | –
273.33 K | – | 1207.2
283.15 K | 1148.71 | –
298.15 K | 1132.91 | –
303.19 K | – | 1108.7
323.14 K | – | 1045.1
323.15 K | 1105.97 | –
343.15 K | 1084.54 | –
353.14 K | – | 952.86
363.15 K | 1061.75 | –
383.15 K | 1038.55 | –
383.17 K | – | 863.47
393.15 K | 1026.63 | –
423.22 K | – | 748.09

CCCCCCBr [1-bromohexane]
Conditions | mass density [kg/m3] | speed of sound [m/s]
243.6 K | – | 1273.8
253.15 K | 1217.95 | –
263.15 K | 1206.62 | –
273.15 K | 1195.28 | –
273.31 K | – | 1172.8
283.15 K | 1183.82 | –
298.15 K | 1166.83 | –
303.2 K | – | 1073.6
323.15 K | 1137.27 | –
323.2 K | – | 1009.3
343.15 K | 1113.66 | –
353.16 K | – | 916.03
383.15 K | 1066.11 | –
383.19 K | – | 826.35
403.15 K | 1040.91 | –
403.25 K | – | 767.47
423.23 K | – | 709.98
